Here are results for 14 molecules from patent US9930892B2, “Molecules having pesticidal utility, and intermediates, compositions, and processes, related thereto” (Dow AgroSciences LLC, priority 2016, dated 2018).

Structures are written as SMILES.

Holding throughout (type): in vivo
Data set [1] deals with Beet Armyworm (Spodoptera exigua). Briefly: Bioassay on Beet Armyworm (BAW), 128-well diet tray assay. The conditions noted are these: 50 μg/cm^2 on artificial diet, second instar larvae, five to seven days, 25° C. The method, then: Bioassays on BAW were conducted using a 128-well diet tray assay. One to five second instar BAW larvae were placed in each well (3 mL) of the diet tray that had been previously filled with 1 mL of artificial diet to which 50 μg/cm^2 of the test molecule (dissolved in 50 μL of 90:10 acetone-water mixture) had been applied (to each of eight wells) and then allowed to dry. Trays were covered with a clear self-adhesive cover and held at 25° C., 14:10 light-dark for five to seven days. Percent mortality was recorded for the larvae in each well; activity in the eight wells was then averaged. The results are indicated in the table entitled “Table ABC: Biological Results” (See Table Section).
(§1) Bioassays on BAW and CL were conducted according to the procedures outlined in Example A: Bioassays on Beet Armyworm (“BAW”) and Cabbage Looper (“CL”) using the indicated concentrations.

The subject of data set [2] is Cabbage Looper (Trichoplusia ni). As to the kind of experiment: Bioassay on Cabbage Looper (CL), 128-well diet tray assay. The settings on record: 50 μg/cm^2 on artificial diet, second instar larvae, five to seven days, 25° C. The method, then:
Bioassays on CL were conducted using a 128-well diet tray assay. One to five second instar CL larvae were placed in each well (3 mL) of the diet tray that had been previously filled with 1 mL of artificial diet to which 50 μg/cm^2 of the test molecule (dissolved in 50 μL of 90:10 acetone-water mixture) had been applied (to each of eight wells) and then allowed to dry. Trays were covered with a clear self-adhesive cover and held at 25° C., 14:10 light-dark for five to seven days. Percent mortality was recorded for the larvae in each well; activity in the eight wells was then averaged. The results are indicated in the table entitled “Table ABC: Biological Results” (See Table Section).
as §1

Data set [3] deals with Yellow Fever Mosquito (Aedes aegypti). The settings on record: 4000 ppm master plate solution diluted, about 1 day-old larvae, scored on mortality after 3 days. The method, then: Master plates containing 400 μg of a molecule dissolved in 100 μL of dimethyl sulfoxide (DMSO) (equivalent to a 4000 ppm solution) are used. A master plate of assembled molecules contains 15 μL per well. To this plate, 135 μL of a 90:10 water:acetone mixture is added to each well. A robot (Biomek® NXP Laboratory Automation Workstation) is programmed to dispense 15 μL aspirations from the master plate into an empty 96-well shallow plate (“daughter” plate). There are 6 reps (“daughter” plates) created per master. The created daughter plates are then immediately infested with YFM larvae.
The day before plates are to be treated, mosquito eggs are placed in Millipore water containing liver powder to begin hatching (4 g. into 400 mL). After the daughter plates are created using the robot, they are infested with 220 μL of the liver powder/larval mosquito mixture (about 1 day-old larvae). After plates are infested with mosquito larvae, a non-evaporative lid is used to cover the plate to reduce drying. Plates are held at room temperature for 3 days prior to grading. After 3 days, each well is observed and scored based on mortality. The results are indicated in the table entitled “Table ABC: Biological Results” (See Table Section).

For `O=C(CCC(F)(F)F)NNC(=O)c1ccc(/C(F)=C/C(c2cc(Br)c(Cl)c(Br)c2)C(F)(F)F)cc1C(F)(F)F` (centres unmarked) [F5, (Z)-4-(3-(3,5-dibromo-4-chlorophenyl)-1,4,4,4-tetrafluorobut-1-en-1-yl)-N′-(4,4,4-trifluorobutanoyl)-2-(trifluoromethyl)benzohydrazide], in data set [1], the “BAW % Control (or Mortality) rating” value is “A (50-100)”. In data set [2], the “CL % Control (or Mortality) rating” value was “A (50-100)”. Moreover, the “YFM % Control (or Mortality) rating” value in data set [3] was “A (80-100)”.

For `O=C(CCC(F)(F)F)NNC(=O)c1ccc(/C(F)=C/C(c2cc(Cl)cc(Cl)c2)C(F)(F)F)cc1C(F)(F)F` (centres unmarked) [F6, (Z)-4-(3-(3,5-Dichlorophenyl)-1,4,4,4-tetrafluorobut-1-en-1-yl)-N′-(4,4,4-trifluorobutanoyl)-2-(trifluoromethyl)benzohydrazide], the “BAW % Control (or Mortality) rating” value in data set [1] is “A (50-100)”. Moreover, the “CL % Control (or Mortality) rating” value in data set [2] is reported as “A (50-100)”. Moreover, the “YFM % Control (or Mortality) rating” value in data set [3] is listed as “A (80-100)”.

Regarding `O=C(CCC(F)(F)F)NNC(=O)c1ccc(/C(F)=C/C(c2ccc(Cl)c(Cl)c2)C(F)(F)F)cc1C(F)(F)F` (centres unmarked) [F7, (Z)-4-(3-(3,4-Dichlorophenyl)-1,4,4,4-tetrafluorobut-1-en-1-yl)-N′-(4,4,4-trifluorobutanoyl)-2-(trifluoromethyl)benzohydrazide], the “BAW % Control (or Mortality) rating” value in data set [1] is “A (50-100)”. Further, the “CL % Control (or Mortality) rating” value in data set [2] is given as “A (50-100)”. The “YFM % Control (or Mortality) rating” value in data set [3] is “A (80-100)”.

Consider `CN(NC(=O)c1ccc(/C(F)=C/C(c2cc(Cl)cc(Cl)c2)C(F)(F)F)cc1C(F)(F)F)C(=O)NCC(F)(F)F` (centres unmarked) [F8, (Z)-2-(4-(3-(3,5-Dichlorophenyl)-1,4,4,4-tetrafluorobut-1-en-1-yl)-2-(trifluoromethyl)benzoyl)-1-methyl-N-(2,2,2-trifluoroethyl) hydrazinecarboxamide], for which the “BAW % Control (or Mortality) rating” value in data set [1] is “A (50-100)”. In addition, the “CL % Control (or Mortality) rating” value in data set [2] was “A (50-100)”. Moreover, the “YFM % Control (or Mortality) rating” value in data set [3] is “A (80-100)”.

In the case of `O=C(CCC(F)(F)F)NNC(=O)c1ccc(/C(F)=C/C(c2cc(Br)cc(Br)c2)C(F)(F)F)cc1C(F)(F)F` (centres unmarked) [F9, (Z)-4-(3-(3,5-Dibromophenyl)-1,4,4,4-tetrafluorobut-1-en-1-yl)-N′-(4,4,4-trifluorobutanoyl)-2-(trifluoromethyl)benzohydrazide], the “BAW % Control (or Mortality) rating” value in data set [1] is recorded as “A (50-100)”. The “CL % Control (or Mortality) rating” value in data set [2] was “A (50-100)”. Also, the “YFM % Control (or Mortality) rating” value in data set [3] is “A (80-100)”.

Turning to `O=C(CCC(F)(F)F)NNC(=O)c1ccc(/C(F)=C/C(c2cc(Cl)c(F)c(Cl)c2)C(F)(F)F)cc1C(F)(F)F` (centres unmarked) [F10, (Z)-4-(3-(3,5-Dichloro-4-fluorophenyl)-1,4,4,4-tetrafluorobut-1-en-1-yl)-N′-(4,4,4-trifluorobutanoyl)-2-(trifluoromethyl)benzohydrazide], the “BAW % Control (or Mortality) rating” value in data set [1] is reported as “A (50-100)”. Further, the “CL % Control (or Mortality) rating” value in data set [2] is listed as “A (50-100)”. For the same molecule, in data set [3], the “YFM % Control (or Mortality) rating” value is reported as “A (80-100)”.

Turning to `CN(NC(=O)c1ccc(/C(F)=C/C(c2cc(Br)cc(Br)c2)C(F)(F)F)cc1C(F)(F)F)C(=O)NCC(F)(F)F` (centres unmarked) [F14, (Z)-2-(4-(3-(3,5-dibromophenyl)-1,4,4,4-tetrafluorobut-1-en-1-yl)-2-(trifluoromethyl)benzoyl)-1-methyl-N-(2,2,2-trifluoroethyl)hydrazinecarboxamide], in data set [1], the “BAW % Control (or Mortality) rating” value is recorded as “A (50-100)”. Also, in data set [2], the “CL % Control (or Mortality) rating” value was “A (50-100)”. Moreover, the “YFM % Control (or Mortality) rating” value in data set [3] was “A (80-100)”.

Consider `CN(NC(=O)c1ccc(/C(F)=C/C(c2ccc(Cl)c(Cl)c2)C(F)(F)F)cc1C(F)(F)F)C(=O)NCC(F)(F)F` (centres unmarked) [F15], for which, in data set [1], the “BAW % Control (or Mortality) rating” value is given as “A (50-100)”. Moreover, the “CL % Control (or Mortality) rating” value in data set [2] is given as “A (50-100)”. Moreover, the “YFM % Control (or Mortality) rating” value in data set [3] was “A (80-100)”.

In the case of `Cc1cc(C(/C=C(\F)c2ccc(C(=O)NN(C)C(=O)NCC(F)(F)F)c(C(F)(F)F)c2)C(F)(F)F)cc(C)c1Cl` (centres unmarked) [F16, (Z)-2-(4-(3-(4-Chloro-3,5-dimethylphenyl)-1,4,4,4-tetrafluorobut-1-en-1-yl)-2-(trifluoromethyl)benzoyl)-1-methyl-N-(2,2,2-trifluoroethyl)hydrazinecarboxamide], the “BAW % Control (or Mortality) rating” value in data set [1] is recorded as “A (50-100)”. Further, the “CL % Control (or Mortality) rating” value in data set [2] is on record as “A (50-100)”. For the same molecule, the “YFM % Control (or Mortality) rating” value in data set [3] is given as “A (80-100)”.

Turning to `CN(NC(=O)c1ccc(/C(F)=C/C(c2cc(Cl)c(F)c(Cl)c2)C(F)(F)F)cc1C(F)(F)F)C(=O)NCC(F)(F)F` (centres unmarked) [F22, (Z)-2-(4-(3-(3,5-Dichloro-4-fluorophenyl)-1,4,4,4-tetrafluorobut-1-en-1-yl)-2-(trifluoromethyl)benzoyl)-1-methyl-N-(2,2,2-trifluoroethyl)hydrazinecarboxamide], in data set [1], the “BAW % Control (or Mortality) rating” value was “A (50-100)”. In addition, in data set [2], the “CL % Control (or Mortality) rating” value is “A (50-100)”. In data set [3], the “YFM % Control (or Mortality) rating” value is recorded as “A (80-100)”.

Take `CN(NC(=O)c1ccc(/C(F)=C/C(c2cc(Cl)cc(Br)c2)C(F)(F)F)cc1C(F)(F)F)C(=O)NCC(F)(F)F` (centres unmarked) [F25, (Z)-2-(4-(3-(3-Bromo-5-chlorophenyl)-1,4,4,4-tetrafluorobut-1-en-1-yl)-2-(trifluoromethyl)benzoyl)-1-methyl-N-(2,2,2-trifluoroethyl)hydrazinecarboxamide]: in data set [1], the “BAW % Control (or Mortality) rating” value was “A (50-100)”. Further, the “CL % Control (or Mortality) rating” value in data set [2] was “A (50-100)”. In data set [3], the “YFM % Control (or Mortality) rating” value is reported as “A (80-100)”.

Turning to `CN(NC(=O)c1ccc(/C(F)=C/C(c2ccc(Br)c(Br)c2)C(F)(F)F)cc1C(F)(F)F)C(=O)NCC(F)(F)F` (centres unmarked) [F26, (Z)-2-(4-(3-(3,4-Dibromophenyl)-1,4,4,4-tetrafluorobut-1-en-1-yl)-2-(trifluoromethyl)benzoyl)-1-methyl-N-(2,2,2-trifluoroethyl)hydrazinecarboxamide], the “BAW % Control (or Mortality) rating” value in data set [1] is listed as “B (More than 0-Less than 50)”. In addition, the “CL % Control (or Mortality) rating” value in data set [2] is “B (More than 0-Less than 50)”. The “YFM % Control (or Mortality) rating” value in data set [3] is on record as “A (80-100)”.

On to `O=C(CCC(F)(F)F)NNC(=O)c1ccc(/C(F)=C/C(c2cc(Cl)c(Br)c(Cl)c2)C(F)(F)F)cc1C(F)(F)F` (centres unmarked) [F27, (Z)-4-(3-(4-Bromo-3,5-dichlorophenyl)-1,4,4,4-tetrafluorobut-1-en-1-yl)-N′-(4,4,4-trifluorobutanoyl)-2-(trifluoromethyl)benzohydrazide], for which the “BAW % Control (or Mortality) rating” value in data set [1] is given as “A (50-100)”. Also, the “CL % Control (or Mortality) rating” value in data set [2] is “A (50-100)”. In addition, the “YFM % Control (or Mortality) rating” value in data set [3] is listed as “A (80-100)”.

As for `CN(NC(=O)c1ccc(/C(F)=C/C(c2cc(Cl)cc(C(F)(F)F)c2)C(F)(F)F)cc1C(F)(F)F)C(=O)NCC(F)(F)F` (centres unmarked) [PF9, (Z)-2-(4-(3-(3-Chloro-5-(trifluoromethyl)phenyl)-1,4,4,4-tetrafluorobut-1-en-1-yl)-2-(trifluoromethyl)benzoyl)-1-methyl-N-(2,2,2-trifluoroethyl)hydrazine-1-carboxamide], the “BAW % Control (or Mortality) rating” value in data set [1] was “A (50-100)”. The “CL % Control (or Mortality) rating” value in data set [2] is “A (50-100)”.
